# Results from ChEMBL document CHEMBL3526061, “Glucuronidation of edaravone by human liver and kidney microsomes: biphasic kinetics and identification of UGT1A9 as the major UDP-glucuronosyltransferase isoform” (Drug Metab Dispos, 2012).
# Key:
# Format in all cases: ADME
# [1] = molecular target: T1, UDP-glucuronosyltransferase 2B4 (Homo sapiens, UniProt P06133); experiment: Activity of human recombinant UGT2B4 expressed in insect cells assessed as enzyme mediated glucuronidation at 500 uM by LC-MS/MS method
# T1 sequence (P06133 whole entry): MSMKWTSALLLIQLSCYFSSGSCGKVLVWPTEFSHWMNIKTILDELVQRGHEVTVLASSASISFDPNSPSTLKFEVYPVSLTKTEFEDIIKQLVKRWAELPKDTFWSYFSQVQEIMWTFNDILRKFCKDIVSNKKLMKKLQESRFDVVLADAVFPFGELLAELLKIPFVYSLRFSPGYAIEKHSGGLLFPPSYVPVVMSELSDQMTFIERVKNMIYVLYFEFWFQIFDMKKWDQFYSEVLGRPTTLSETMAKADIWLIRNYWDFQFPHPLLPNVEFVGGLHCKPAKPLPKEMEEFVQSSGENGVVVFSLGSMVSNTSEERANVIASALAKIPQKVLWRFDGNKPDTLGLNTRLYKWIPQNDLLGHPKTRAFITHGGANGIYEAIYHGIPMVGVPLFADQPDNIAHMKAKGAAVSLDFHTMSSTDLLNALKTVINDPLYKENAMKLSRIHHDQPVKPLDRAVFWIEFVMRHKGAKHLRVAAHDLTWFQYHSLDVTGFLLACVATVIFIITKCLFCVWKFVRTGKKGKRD
# [2] = molecular target: T2, UDP-glucuronosyltransferase 1A9 (Homo sapiens, UniProt O60656); experiment: Activity of human recombinant UGT1A9 expressed in insect cells assessed as enzyme mediated glucuronidation at 500 uM by LC-MS/MS method
# T2 sequence (O60656 whole entry): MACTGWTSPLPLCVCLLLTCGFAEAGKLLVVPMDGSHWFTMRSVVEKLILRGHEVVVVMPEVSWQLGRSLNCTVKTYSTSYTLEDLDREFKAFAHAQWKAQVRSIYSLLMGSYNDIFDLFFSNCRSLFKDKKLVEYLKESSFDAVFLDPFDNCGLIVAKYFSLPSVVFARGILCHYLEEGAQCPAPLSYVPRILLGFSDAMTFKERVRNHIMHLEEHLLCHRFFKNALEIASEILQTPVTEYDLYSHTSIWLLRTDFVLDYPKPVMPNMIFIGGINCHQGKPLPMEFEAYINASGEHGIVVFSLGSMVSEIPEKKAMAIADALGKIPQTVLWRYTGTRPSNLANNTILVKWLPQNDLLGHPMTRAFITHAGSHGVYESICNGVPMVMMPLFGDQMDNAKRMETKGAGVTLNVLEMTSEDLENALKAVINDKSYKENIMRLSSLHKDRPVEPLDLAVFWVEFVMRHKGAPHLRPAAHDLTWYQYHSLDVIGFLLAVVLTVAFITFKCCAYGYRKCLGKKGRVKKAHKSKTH
# [3] = Drug metabolism in human kidney microsomes assessed as intrinsic clearance for drug glucuronidation per mg tissue in presence of BSA by LC-MS/MS method
# [4] = molecular target: T3, UDP-glucuronosyltransferase 1A1 (Homo sapiens, UniProt P22309); experiment: Activity of human recombinant UGT1A1 expressed in insect cells assessed as enzyme mediated glucuronidation in presence of 10 to 50 uM estradiol by LC-MS/MS method
# T3 sequence (P22309 whole entry): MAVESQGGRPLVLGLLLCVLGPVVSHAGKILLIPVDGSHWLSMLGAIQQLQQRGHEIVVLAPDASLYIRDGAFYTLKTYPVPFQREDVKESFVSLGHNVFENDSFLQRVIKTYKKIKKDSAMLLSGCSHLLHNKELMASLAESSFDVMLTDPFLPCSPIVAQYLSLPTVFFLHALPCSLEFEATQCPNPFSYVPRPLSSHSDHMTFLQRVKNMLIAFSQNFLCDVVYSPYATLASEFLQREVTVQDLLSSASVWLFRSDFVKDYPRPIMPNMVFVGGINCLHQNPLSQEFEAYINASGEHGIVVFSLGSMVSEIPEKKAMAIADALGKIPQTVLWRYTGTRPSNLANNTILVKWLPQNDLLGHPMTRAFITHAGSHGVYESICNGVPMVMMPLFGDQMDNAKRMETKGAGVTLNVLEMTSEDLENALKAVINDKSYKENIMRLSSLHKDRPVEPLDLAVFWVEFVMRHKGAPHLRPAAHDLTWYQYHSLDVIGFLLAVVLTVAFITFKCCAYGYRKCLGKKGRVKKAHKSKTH
# [5] = molecular target: T4, UDP-glucuronosyltransferase 1A7 (Homo sapiens, UniProt Q9HAW7); experiment: Activity of human recombinant UGT1A7 expressed in insect cells assessed as enzyme mediated glucuronidation at 500 uM by LC-MS/MS method
# T4 sequence (Q9HAW7 whole entry): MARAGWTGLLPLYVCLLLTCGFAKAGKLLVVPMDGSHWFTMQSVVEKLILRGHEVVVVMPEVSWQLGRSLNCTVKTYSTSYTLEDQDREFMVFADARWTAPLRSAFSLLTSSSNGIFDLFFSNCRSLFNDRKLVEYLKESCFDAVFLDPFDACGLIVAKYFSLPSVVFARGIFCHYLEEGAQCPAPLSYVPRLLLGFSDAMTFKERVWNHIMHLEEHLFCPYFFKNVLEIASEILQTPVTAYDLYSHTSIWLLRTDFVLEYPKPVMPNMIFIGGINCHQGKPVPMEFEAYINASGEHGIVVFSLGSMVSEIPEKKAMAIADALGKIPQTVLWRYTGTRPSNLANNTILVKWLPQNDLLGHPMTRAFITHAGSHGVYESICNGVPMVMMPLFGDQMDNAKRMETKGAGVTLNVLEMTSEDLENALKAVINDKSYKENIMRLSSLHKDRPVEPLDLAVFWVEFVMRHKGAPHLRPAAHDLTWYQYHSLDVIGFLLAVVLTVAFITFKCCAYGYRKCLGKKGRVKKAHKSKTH
# [6] = molecular target: T3, UDP-glucuronosyltransferase 1A1; experiment: Activity of human recombinant UGT1A1 expressed in insect cells assessed as intrinsic clearance for enzyme mediated glucuronidation per mg protein by LC-MS/MS method
smiles,measurement,setting,value
CC1=NN(c2ccccc2)C(=O)C1 [EDARAVONE],Drug metabolism,[1],metabolite_detected
same,Drug metabolism,[2],metabolite_detected
same,CL(high),[3],78.5 µL/min/mg
same,CL(low),[3],3.6 µL/min/mg
same,Drug metabolism,[4],metabolite_not_detected
same,Drug metabolism,[5],metabolite_detected
same,CL(high),[6],0.2 µL/min/mg
